Measured values taken from ChEMBL document CHEMBL1201862, “PubChem BioAssay data set” (2004).
Blank lines part the entries; values can stand above or below the molecule they belong to. Calls of active or inactive are those of the source.

Legend:
Cytochrome P450 3A4 [1] = target: T1, Cytochrome P450 3A4 (Homo sapiens, UniProt P08684); details: Potency
Cytochrome P450 1A2 = target: T2, Cytochrome P450 1A2 (Homo sapiens, UniProt P05177);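 note: PubChem cytochrome P450 panel assay, CYP1A2 panel member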
T2 sequence (P05177 whole entry): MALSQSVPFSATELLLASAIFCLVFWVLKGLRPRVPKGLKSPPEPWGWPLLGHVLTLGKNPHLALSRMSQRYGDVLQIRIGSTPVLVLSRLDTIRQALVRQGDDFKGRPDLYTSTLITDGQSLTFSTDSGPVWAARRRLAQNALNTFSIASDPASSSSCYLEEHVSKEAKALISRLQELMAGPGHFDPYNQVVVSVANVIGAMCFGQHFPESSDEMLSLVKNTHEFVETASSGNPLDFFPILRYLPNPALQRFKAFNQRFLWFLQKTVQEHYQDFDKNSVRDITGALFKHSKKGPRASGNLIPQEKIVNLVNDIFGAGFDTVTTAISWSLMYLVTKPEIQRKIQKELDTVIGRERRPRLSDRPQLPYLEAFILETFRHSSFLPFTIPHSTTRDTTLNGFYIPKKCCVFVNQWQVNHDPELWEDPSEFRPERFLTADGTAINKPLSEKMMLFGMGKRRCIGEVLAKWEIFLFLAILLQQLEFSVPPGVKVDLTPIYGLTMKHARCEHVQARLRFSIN

Cytochrome P450 2C9 = Cytochrome P450 2C9 (Homo sapiens, UniProt P11712)
Cytochrome P450 2C9, sequence (P11712 whole entry): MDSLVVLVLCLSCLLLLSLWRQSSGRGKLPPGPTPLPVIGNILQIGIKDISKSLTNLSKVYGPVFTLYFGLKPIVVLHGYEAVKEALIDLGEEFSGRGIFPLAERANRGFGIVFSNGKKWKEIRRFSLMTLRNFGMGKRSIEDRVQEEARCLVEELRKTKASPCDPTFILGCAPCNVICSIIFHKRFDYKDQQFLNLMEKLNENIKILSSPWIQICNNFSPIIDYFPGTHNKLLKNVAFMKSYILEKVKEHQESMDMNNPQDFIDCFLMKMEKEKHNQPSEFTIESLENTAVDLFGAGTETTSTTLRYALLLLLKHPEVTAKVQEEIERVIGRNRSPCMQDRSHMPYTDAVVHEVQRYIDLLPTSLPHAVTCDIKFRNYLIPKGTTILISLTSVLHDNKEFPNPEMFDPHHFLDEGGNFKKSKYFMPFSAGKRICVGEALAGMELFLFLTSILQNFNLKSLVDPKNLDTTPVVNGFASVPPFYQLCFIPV

Cytochrome P450 3A4 [2] = target: T1, Cytochrome P450 3A4
[3] = target: Eukaryotic translation initiation factor 4E (Mus musculus, UniProt P63073); assay: eIF4E–eIF4G protein interaction inhibitors, dose response, biochemical, TR-FRET (AID 855); format: functional;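 note: potency for disrupting eIF4E binding to eIF4GI seen as loss of FRET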
Eukaryotic translation initiation factor 4E, sequence (P63073 whole entry): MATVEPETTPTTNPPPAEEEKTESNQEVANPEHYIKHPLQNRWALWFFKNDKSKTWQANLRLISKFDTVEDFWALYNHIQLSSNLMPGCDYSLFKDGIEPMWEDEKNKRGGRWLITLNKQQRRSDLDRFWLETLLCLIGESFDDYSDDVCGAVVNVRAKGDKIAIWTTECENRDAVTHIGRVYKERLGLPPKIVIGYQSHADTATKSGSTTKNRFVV

Coagulation factor XII = target: T3, Coagulation factor XII (Homo sapiens, UniProt P00748); format: functional;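 note: activated factor XIIa alpha cleaving a fluorogenic AMC peptide substrate; inhibitor potency from loss of enzyme activity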
T3 sequence (P00748 whole entry): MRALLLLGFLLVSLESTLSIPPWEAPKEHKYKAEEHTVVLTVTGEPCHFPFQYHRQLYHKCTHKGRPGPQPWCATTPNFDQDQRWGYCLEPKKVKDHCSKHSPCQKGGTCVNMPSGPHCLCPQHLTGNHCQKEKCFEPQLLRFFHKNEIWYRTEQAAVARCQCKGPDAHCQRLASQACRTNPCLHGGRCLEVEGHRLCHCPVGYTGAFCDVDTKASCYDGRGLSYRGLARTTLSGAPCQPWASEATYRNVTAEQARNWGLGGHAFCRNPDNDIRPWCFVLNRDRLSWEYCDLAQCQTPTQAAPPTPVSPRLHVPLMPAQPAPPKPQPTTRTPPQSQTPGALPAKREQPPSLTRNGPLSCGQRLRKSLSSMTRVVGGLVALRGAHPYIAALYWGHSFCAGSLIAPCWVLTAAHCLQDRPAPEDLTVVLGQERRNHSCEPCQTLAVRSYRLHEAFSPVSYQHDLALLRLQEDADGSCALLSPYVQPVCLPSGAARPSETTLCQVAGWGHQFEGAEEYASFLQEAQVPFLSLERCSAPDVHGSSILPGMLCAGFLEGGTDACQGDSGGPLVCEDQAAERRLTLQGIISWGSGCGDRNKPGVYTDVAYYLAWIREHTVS

[4] = target: 26S proteasome non-ATPase regulatory subunit 14 (Homo sapiens, UniProt O00487); assay: inhibition of proteasome subunit RPN11 – biochemical, fluorescence polarization, uHTS hits, confirmation (AID 602368); format: functional
26S proteasome non-ATPase regulatory subunit 14, sequence (O00487 whole entry): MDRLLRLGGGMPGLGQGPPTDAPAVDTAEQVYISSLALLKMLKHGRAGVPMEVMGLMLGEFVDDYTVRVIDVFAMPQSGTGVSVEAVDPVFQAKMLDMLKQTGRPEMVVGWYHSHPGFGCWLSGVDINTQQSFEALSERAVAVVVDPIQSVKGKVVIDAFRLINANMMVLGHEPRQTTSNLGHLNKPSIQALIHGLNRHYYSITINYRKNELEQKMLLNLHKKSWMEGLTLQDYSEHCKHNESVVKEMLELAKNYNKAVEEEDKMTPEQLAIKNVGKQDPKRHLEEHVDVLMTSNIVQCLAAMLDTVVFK

[5] = target: 72 kDa type IV collagenase (Homo sapiens, UniProt P08253); assay: Dose Response validation of uHTS RPN11 inhibitor hits using a MMP-2 Fluorescence assay.; format: functional
72 kDa type IV collagenase, sequence (P08253 whole entry): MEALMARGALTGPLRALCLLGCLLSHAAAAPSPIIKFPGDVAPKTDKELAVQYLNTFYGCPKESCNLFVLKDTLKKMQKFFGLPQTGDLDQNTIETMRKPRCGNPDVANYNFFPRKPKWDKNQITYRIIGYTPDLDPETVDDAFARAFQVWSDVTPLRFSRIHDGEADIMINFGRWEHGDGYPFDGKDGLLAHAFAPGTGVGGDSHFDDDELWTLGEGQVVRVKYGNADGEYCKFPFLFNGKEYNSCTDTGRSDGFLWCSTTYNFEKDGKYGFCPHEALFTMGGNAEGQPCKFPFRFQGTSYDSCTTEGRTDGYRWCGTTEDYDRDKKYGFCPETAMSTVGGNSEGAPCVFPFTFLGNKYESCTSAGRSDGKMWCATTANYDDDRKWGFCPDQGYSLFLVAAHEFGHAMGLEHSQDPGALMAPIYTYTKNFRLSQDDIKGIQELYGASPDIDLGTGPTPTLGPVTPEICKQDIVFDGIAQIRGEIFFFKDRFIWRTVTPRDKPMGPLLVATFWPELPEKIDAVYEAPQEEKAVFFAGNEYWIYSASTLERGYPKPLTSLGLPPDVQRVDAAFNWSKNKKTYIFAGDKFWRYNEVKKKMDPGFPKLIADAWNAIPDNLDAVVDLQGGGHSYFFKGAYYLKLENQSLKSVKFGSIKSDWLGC

Prothrombin [6] = target: Prothrombin (Bos taurus, UniProt P00735); assay: thrombin inhibition, dose response, biochemical, fluorescence polarization, uHTS hits (AID 602369); format: functional
Large T antigen = Large T antigen (Simian virus 40, UniProt P03070); format: functional, Betapolyomavirus macacae;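 note: Confirmatory-stage PubChem screen for compounds that inhibit SV40 T antigen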
Large T antigen, sequence (P03070 whole entry): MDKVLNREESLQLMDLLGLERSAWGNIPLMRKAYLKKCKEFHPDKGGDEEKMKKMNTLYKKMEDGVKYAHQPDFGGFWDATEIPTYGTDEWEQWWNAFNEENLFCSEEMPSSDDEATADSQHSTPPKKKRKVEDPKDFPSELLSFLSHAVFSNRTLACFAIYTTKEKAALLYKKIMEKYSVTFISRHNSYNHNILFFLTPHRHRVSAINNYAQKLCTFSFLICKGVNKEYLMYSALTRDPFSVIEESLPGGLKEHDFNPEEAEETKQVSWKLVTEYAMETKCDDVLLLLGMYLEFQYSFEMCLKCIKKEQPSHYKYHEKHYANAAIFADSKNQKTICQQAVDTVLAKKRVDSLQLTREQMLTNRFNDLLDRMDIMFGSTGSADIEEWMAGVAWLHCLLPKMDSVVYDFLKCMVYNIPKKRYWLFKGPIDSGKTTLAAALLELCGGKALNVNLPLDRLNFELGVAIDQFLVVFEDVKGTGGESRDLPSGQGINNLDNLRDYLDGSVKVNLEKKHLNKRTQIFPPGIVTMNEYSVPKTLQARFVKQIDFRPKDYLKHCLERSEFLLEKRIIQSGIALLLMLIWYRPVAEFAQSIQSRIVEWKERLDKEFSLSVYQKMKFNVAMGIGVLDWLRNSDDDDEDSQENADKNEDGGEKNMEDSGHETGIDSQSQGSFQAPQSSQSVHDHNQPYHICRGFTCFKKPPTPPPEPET

[7] = growth suppression of PTEN-null colon cells, dose response, cell-based, HCT116 PTEN knockout (AID 1047); format: functional;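 note: HCT116 colon tumor cells with PTEN knocked out; cells exposed to compound for 60 hours before readout; potency for loss of cell viability measured by luminescence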
[8] = growth suppression of beta-catenin-knockout colon cells, dose response, cell-based, HCT116, human colon tumor (AID 1045); format: functional;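 note: HCT116 colon tumor cells with beta catenin knocked out; cells exposed to compound for 60 hours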
Prothrombin [9] = target: Prothrombin (Homo sapiens, UniProt P00734); assay: Thrombin 1536 HTS Dose Response Confirmation. [Related pubchem assays: 1046 (Thrombin 1536 HTS; hits were confirmed in this assay)]; format: functional
HEK293 [10] = assay: cells; format: functional, cell-based; details: Homo sapiens
[11] = target: T4, Calpain-2 catalytic subunit (Sus scrofa, UniProt P43367); assay: pig calpain II inhibitor potency, dose response, biochemical, fluorogenic peptide substrate (AID 1420); format: functional
T4 sequence (P43367 whole entry): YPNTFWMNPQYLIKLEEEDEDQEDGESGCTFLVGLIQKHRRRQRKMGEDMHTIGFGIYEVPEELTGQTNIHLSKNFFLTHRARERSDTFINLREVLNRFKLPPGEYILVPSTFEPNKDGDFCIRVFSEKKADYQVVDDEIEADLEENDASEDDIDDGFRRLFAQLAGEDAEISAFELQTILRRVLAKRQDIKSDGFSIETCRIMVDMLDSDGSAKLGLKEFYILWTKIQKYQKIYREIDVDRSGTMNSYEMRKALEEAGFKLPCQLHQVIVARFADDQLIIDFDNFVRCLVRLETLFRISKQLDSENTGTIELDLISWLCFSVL

HEK293 [12] = assay: cells; format: functional, cell-based; details: Homo sapiens; remark: listed apart in the source
[13] = target: Nucleotide-binding oligomerization domain-containing protein 2 (Homo sapiens, UniProt Q9HC29); assay: NOD2 signaling inhibitors, cell-based, luminescence, uHTS, HEK293 (AID 1566); format: functional
Nucleotide-binding oligomerization domain-containing protein 2, sequence (Q9HC29 whole entry, the tested form may be a part): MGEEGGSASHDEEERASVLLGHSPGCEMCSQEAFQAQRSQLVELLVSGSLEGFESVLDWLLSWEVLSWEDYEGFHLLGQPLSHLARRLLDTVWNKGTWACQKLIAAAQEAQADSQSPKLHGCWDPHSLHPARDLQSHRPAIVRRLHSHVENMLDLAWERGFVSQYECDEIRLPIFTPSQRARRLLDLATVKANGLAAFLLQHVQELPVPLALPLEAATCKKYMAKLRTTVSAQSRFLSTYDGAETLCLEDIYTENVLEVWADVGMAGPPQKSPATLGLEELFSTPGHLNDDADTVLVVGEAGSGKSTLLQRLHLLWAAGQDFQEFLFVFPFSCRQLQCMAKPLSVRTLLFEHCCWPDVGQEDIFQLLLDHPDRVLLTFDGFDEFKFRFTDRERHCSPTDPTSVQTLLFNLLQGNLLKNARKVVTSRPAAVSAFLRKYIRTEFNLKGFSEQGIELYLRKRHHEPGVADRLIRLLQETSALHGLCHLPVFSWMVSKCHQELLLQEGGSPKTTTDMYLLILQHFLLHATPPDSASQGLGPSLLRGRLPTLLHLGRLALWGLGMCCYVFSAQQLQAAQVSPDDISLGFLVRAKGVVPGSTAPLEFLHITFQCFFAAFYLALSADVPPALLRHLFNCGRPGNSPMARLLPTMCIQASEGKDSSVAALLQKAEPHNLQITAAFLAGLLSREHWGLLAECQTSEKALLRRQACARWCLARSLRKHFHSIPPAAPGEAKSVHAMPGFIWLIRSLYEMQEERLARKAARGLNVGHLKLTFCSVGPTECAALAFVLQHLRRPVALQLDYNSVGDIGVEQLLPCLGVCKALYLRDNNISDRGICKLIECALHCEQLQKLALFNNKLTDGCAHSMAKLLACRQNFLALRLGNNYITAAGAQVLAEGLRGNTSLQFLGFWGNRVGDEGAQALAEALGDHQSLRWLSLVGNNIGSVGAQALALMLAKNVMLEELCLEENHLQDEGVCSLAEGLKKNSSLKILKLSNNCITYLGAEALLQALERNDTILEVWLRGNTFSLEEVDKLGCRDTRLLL

HEK293 [14] = assay: NOD1 signaling inhibitors, primary screen, cell-based, luminescence, uHTS (AID 1578); format: functional; details: Homo sapiens
HEK293 [15] = assay: cells; format: functional, cell-based; details: Homo sapiens; remark: listed apart in the source
HEK293 [16] = assay: NOD2 signaling inhibitors in MDP-stimulated cells, cell-based, uHTS, luminescence (AID 2001); format: functional; details: Homo sapiens
[17] = target: DNA dC->dU-editing enzyme APOBEC-3G (Homo sapiens, UniProt Q9HC16); assay: Dose Response confirmation of small molecule APOBEC3G DNA Deaminase Inhibitors via a fluorescence-based single-stranded DNA deaminase assay. [Related pubchem assays (depositor defined):AID493012, AID493028]; format: functional
DNA dC->dU-editing enzyme APOBEC-3G, sequence (Q9HC16 whole entry): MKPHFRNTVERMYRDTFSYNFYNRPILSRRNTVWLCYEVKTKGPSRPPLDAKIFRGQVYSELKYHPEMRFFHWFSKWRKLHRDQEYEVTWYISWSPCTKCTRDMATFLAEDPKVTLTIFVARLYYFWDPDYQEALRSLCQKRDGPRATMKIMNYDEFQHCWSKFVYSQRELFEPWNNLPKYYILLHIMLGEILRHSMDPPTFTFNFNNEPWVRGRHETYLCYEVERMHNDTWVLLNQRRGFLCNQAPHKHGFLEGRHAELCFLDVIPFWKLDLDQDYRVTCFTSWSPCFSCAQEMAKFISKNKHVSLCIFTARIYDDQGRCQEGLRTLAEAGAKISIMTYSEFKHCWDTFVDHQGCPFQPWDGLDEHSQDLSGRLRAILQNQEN

[18] = inhibitors of PGC1a acetylation in cells, dose response, cell-based, cherry-picked samples (AID 720514); format: functional;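 note: potency may reflect raised or lowered acetylation signal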
[19] = target: T5, Voltage-gated N-type calcium channel alpha-1B subunit/Amyloid beta A4 precursor protein-binding family A member 1 (Homo sapiens, UniProt Q00975+Q02410); format: protein assay
[20] = target: T5, Voltage-gated N-type calcium channel alpha-1B subunit/Amyloid beta A4 precursor protein-binding family A member 1; format: protein assay; remark: listed apart in the source
cells [21] = format: functional, cell-based
cells [22] = format: functional, cell-based; remark: listed apart in the source
H9c2 = assay: cells; format: functional, cell-based; details: Rattus norvegicus, H9c2, Myocardium;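 note: confirmatory concentration-response retest of ultra-high-throughput screening hits for modulation of myocardial damage; cell death induced by hydrogen peroxide oxidative stress; compound pretreatment for 60 min then peroxide exposure for 2 h; potency is for protecting the cells against peroxide damage rather than for killing them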
[23] = target: T6, Heat shock factor protein 1 (Mus musculus, UniProt P38532); assay: inhibition of MG132-induced HSE-luciferase signal, confirmation, cell-based, NIH3T3, luminescence, dose retest (AID 2382); format: functional;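 note: NIH3T3 fibroblasts with HSF1-driven luciferase reporter stressed by proteasome inhibitor MG132; luminescence from HSF1-driven luciferase expression after 8 hours of MG132 stress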
T6 sequence (P38532 whole entry): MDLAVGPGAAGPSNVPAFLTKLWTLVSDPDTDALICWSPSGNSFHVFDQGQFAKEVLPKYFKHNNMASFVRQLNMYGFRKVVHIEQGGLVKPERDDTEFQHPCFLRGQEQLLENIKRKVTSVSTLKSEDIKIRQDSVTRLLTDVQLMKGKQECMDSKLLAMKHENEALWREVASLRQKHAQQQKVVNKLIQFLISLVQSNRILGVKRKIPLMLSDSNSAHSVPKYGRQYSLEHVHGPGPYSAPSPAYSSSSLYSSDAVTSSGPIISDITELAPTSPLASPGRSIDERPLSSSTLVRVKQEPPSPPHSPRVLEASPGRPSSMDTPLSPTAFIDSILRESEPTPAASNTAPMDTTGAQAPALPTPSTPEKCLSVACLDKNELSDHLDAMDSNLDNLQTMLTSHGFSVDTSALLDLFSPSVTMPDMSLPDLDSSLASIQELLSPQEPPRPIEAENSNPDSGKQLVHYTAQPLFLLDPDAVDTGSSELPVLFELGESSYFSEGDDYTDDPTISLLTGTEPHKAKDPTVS

T1 sequence (P08684 whole entry): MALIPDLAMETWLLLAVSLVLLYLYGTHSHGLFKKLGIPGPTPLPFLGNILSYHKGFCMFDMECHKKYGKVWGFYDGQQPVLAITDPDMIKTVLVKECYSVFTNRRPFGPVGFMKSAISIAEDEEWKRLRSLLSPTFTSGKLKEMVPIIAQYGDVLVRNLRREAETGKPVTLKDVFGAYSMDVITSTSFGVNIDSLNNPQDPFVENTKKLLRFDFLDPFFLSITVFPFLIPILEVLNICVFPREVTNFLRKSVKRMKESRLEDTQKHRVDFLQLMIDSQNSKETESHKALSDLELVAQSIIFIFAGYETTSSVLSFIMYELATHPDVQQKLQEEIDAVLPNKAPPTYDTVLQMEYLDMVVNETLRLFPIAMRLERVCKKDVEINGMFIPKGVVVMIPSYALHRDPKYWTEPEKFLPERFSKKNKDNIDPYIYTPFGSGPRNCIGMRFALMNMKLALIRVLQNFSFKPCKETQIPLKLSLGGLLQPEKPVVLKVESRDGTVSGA

AC50 (Cytochrome P450 3A4 [1]): 39.8 µM (inconclusive)
Compound: CC(CCC(=O)O)(c1ccc(O)cc1)c1ccc(O)cc1

AC50 (Cytochrome P450 1A2): 5.62 µM (inconclusive)
AC50 (Cytochrome P450 2C9): 2.24 µM (inconclusive)
AC50 (Cytochrome P450 3A4 [2]): 7.08 µM (inconclusive)
IC50 [3]: > 64 µM (inactive)
Compound: Cc1ccc(SCc2cc(=O)[nH]c(NC(N)=Nc3ccc(C)c(C)c3)n2)cc1

AC50 (Cytochrome P450 3A4 [1]): 0.251 µM (inconclusive)
Compound: CC(Oc1ccccc1)C(=O)NC1C(=O)N2C(C(=O)O)C(C)(C)S[C@@H]12 (stereo not given in full)

IC50 (Coagulation factor XII): > 50 µM (inactive)
Compound: Cc1ccc(C(=O)NCCN2CCNC2=O)cc1

IC50 [4]: 14.8 µM (active)
IC50 [5]: > 100 µM (inactive)
IC50 (Prothrombin [6]): 29.7 µM (active)
IC50 (Large T antigen): 9.11 µM (active)
Compound: COc1cc(/C=C2\N=C3CCCCCN3C2=O)ccc1O

Compound: O=C(Nc1ccc(F)cc1)Nc1nnc(-c2ccncc2)s1
IC50 [4]: 23.2 µM (active)
IC50 [5]: > 100 µM (inactive)
EC50 [7]: 22.4 µM (active)
EC50 [8]: 25.9 µM (active)
IC50 (Prothrombin [6]): 65.5 µM (active)

IC50 (Prothrombin [9]): > 50 µM (not active)
Compound: Cc1nc(NCCc2ccccc2F)c(C#N)c(C)c1[N+](=O)[O-]

Compound: COc1cc([N+](=O)[O-])ccc1-c1ccc(/C=N/NC(=O)c2ccccc2O)o1
IC50 (HEK293 [10]): > 20 µM (inactive)
IC50 [11]: 8.3 µM (not active)
IC50 (HEK293 [12]): 19.9 µM (active)
EC50 [13]: > 20 µM (inactive)
EC50 (HEK293 [14]): > 20 µM (inactive)
IC50 (HEK293 [15]): > 20 µM (inactive)
IC50 (HEK293 [16]): 14.1 µM (inactive)

AC50 (Cytochrome P450 3A4 [1]): 3.98 µM (inconclusive)
Compound: CCN1C(C)=C(C(=O)OC)C(c2ccccc2)N2C(=O)[C@@]3(C(=O)OC)O[C@@]12C1C(=O)CCCC13 (stereo not given in full)

IC50 [17]: 55.8 µM (active)
Compound: O=C(CC1Sc2ncnn2C1=O)Nc1ccc(Br)cc1 (stereo not given)

Compound: O=C(C1CC1)N1C[C@@H]2N[C@H](C1)[C@@H]2c1ccc(/C=C/c2ccccc2)cc1
AC50 [18]: 32.3 µM (active)

IC50 (Coagulation factor XII): > 50 µM (inactive)
Compound: CCN1C(=O)c2[nH]nc(C(=O)OC)c2C1=O

IC50 [19]: > 50 µM (inactive)
IC50 [20]: 9.65 µM (active)
Compound: NS(=O)(=O)c1ccc(CCNC(=O)/C=C/c2ccc([N+](=O)[O-])cc2)cc1

Compound: CCOc1cc(C(=S)N2CCOCC2)ccc1O
IC50 [17]: 42.8 µM (active)
IC50 [3]: > 64 µM (inactive)

IC50 (Coagulation factor XII): > 50 µM (inactive)
Compound: Cc1cc(C)n(C(=O)CNc2cccc(Cl)c2C)n1

Compound: CC/N=C1\SC(CC(=O)NC(C)C)C(=O)N1CC (stereo not given)
EC50 (cells [21]): > 350 µM (not active)
EC50 (cells [22]): > 350 µM (not active)

IC50 [3]: > 64 µM (inactive)
Compound: CCc1c(C)sc(NC(=O)C2CCCCC2C(=O)O)c1C(N)=O (stereo not given)

IC50 [3]: > 64 µM (inactive)
Compound: c1ccc(-n2nnc3cnccc32)cc1

Compound: COc1ccc(Oc2c(Cl)cnn(-c3ccccc3)c2=O)cc1
AC50 [18]: 19.7 µM (active)
AC50 (Cytochrome P450 2C9): 11.2 µM (inconclusive)

IC50 (Prothrombin [9]): 9.18 µM (active)
Compound: N#Cc1ccccc1NC(=O)COC(=O)COc1ccccc1[N+](=O)[O-]

Compound: O=[N+]([O-])c1cc(-c2nnc(O)c3ccccc23)ccc1NCCCO
IC50 (H9c2): 16.3 µM (active)
AC50 [18]: 25 µM (active)

IC50 (Prothrombin [9]): 1.48 µM (active)
EC50 [23]: > 195 µM (not active)
Compound: O=C(c1cccs1)n1nc(-c2ccco2)nc1SCc1ccccc1

Compound: CCN(CC)CCCNC(=O)C1c2ccccc2C(=O)N(C)C1c1ccc(OC)cc1 (stereo not given)
EC50 (cells [21]): > 350 µM (not active)
EC50 (cells [22]): > 350 µM (not active)

IC50 [4]: 31.6 µM (active)
IC50 [5]: > 100 µM (inactive)
IC50 (Prothrombin [6]): 36.5 µM (active)
Compound: CCOC(=O)C1CCN(C(=O)CCc2nc3sc4c(c3c(=O)[nH]2)CCCC4)CC1

Compound: CCOC(=O)c1c(S(=O)(=O)N2CCCC2)c(C)n(C)c1C
EC50 (cells [21]): > 350 µM (not active)
EC50 (cells [22]): > 350 µM (not active)

AC50 (Cytochrome P450 3A4 [1]): 39.8 µM (inconclusive)
Compound: O=c1c(O)c(-c2ccc(O)c(O)c2)oc2c(OC3OC(CO)C(O)C(O)C3O)c(O)cc(O)c12 (stereo not given)

IC50 [4]: 35.2 µM (active)
IC50 [5]: > 100 µM (inactive)
IC50 (Prothrombin [6]): 50.4 µM (active)
Compound: CC(=O)C1=C(O)C(=CC=Cc2ccccc2)OC1=O
